Values of other authors, collected in patent US6379294B1, “Process for preparing esterquats” (Akzo Nobel N.V., priority 1999, dated 2002).

Details: salts of the tertiary amines as such; from Klomp, Kruka, Reijnhart, IBC Conference 1998

Row | SMILES | Inhibition of the growth of gas hydrates
1 | CCCCCCCCCCN(CCCC)CCCC [di-n-butyl decyl amine] | inhibited the growth of gas hydrates
2 | CCCCN(CCCC)CCCC [tri-n-butyl amine] | inhibited the growth of gas hydrates
